Experiment: Chemical stability of DCE in the particulate emulsion (HPLC/UV)
Assay type: physicochemical
Description: The chemical stability of DCE in the particulate emulsion was monitored using an HPLC/UV method at 4° C. and at room temperature.

[1] = extrapolation with the slope of the decay

Compound: CCCCCCCCCCCCOC(=O)CN(C)C(=N)N [DCE, dodecyl creatine ester]
- Calculation of remaining content (%) after 1 month of storage at room temperature [1]: 99%
- Estimation of remaining content after 18 months of storage at 4° C. [1]: more than 95%
- Period over which DCE is stable (storage at room temperature (20-25° C.)): more than 20 days
- Period over which DCE is stable (storage in the fridge (4° C.)): more than 3 months

— patent publication US20260248720A1, “COMPOSITIONS SUITABLE FOR THE ADMINISTRATION OF CREATINE ESTERS” (priority 2023, published 2026)
